This is an account of results in doi:10.1101/2023.07.01.547314v1 (biorxiv, 2023).

In general, IC50 refers to the midpoint of a concentration-inhibition curve. High values mean a need for much substance, low ones inhibition by little substance.

Positions count from the first letter of the chain named.

Assay [1] deals with T1, A2BR (Homo sapiens, UniProt P29275).
T1 sequence (P29275 1-332): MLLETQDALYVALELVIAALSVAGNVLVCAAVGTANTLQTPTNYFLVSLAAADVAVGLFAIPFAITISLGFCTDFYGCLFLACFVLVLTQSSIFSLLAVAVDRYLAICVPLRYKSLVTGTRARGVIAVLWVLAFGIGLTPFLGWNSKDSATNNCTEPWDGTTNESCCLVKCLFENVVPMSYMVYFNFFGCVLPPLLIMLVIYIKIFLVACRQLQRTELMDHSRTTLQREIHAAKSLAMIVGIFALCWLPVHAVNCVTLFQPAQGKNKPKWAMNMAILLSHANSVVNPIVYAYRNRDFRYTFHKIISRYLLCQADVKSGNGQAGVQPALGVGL
Nature of the assay: GloSensor cAMP assay, HEK293. The assay is classed as cell-based. On the technique in general: Changes in cAMP serve as a functional read-out for many G protein-coupled receptors.

Assay [2] has as its target T2, A2BR (Homo sapiens, UniProt P29275, Y10F).
T2 sequence (P29275 1-332 Y10F): T1 sequence (P29275 1-332) with Y10F
The assay is described as follows: GloSensor cAMP assay, HEK293. The assay is classed as cell-based.

Assay [3] concerns the target T3, A2BR (Homo sapiens, UniProt P29275, N273Y).
T3 sequence (P29275 1-332 N273Y): T1 sequence (P29275 1-332) with N273Y
Nature of the assay: GloSensor cAMP assay, HEK293. It is filed as cell-based.

Assay [4] deals with A2AR (Homo sapiens, UniProt P29274, Y271N). Nature of the assay: cell-based.
A2AR (Homo sapiens, UniProt P29274, Y271N), sequence (P29274 whole entry Y271N): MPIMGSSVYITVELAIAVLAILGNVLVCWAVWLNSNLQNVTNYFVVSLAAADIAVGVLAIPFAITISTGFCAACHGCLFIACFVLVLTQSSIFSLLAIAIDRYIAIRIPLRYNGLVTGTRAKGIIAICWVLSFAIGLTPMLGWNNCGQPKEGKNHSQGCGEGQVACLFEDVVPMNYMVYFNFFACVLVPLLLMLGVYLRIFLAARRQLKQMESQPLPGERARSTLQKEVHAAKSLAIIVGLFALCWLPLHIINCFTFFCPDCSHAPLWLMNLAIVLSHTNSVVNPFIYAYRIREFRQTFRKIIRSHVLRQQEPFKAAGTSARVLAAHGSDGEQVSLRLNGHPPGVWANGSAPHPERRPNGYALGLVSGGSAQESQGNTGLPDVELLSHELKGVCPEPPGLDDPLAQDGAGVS
In assay [5] the target is A2AR (Homo sapiens, UniProt P29274, Y9F). The assay is described as follows: cell-based.
A2AR (Homo sapiens, UniProt P29274, Y9F), sequence (P29274 whole entry Y9F): as the sequence (P29274 whole entry Y271N) above, with Y9F, N271Y counted along it
The target in assay [6] is A2AR (Homo sapiens, UniProt P29274). Nature of the assay: cell-based.
A2AR (Homo sapiens, UniProt P29274), sequence (P29274 whole entry): as the sequence (P29274 whole entry Y271N) above, with N271Y counted along it

Consider `Cc1c(C#N)cccc1-c1cc(-c2ccn(Cc3cccc(C(C)(C)O)n3)c(=O)c2)nc(N)n1` [2-118, 3-[2-amino-6-[1-[[6-(2-hydroxypropan-2-yl)pyridin-2-yl]methyl]-2-oxo-1,2-dihydropyridin-4-yl]pyrimidin-4-yl]-2-methylbenzonitrile], for which the 50% inhibitory concentration (IC50) amounted to 2630 nM against A2BR [1], 441 nM on A2BR [2] and 1210 nM against A2BR [3].

With `Cc1c(C#N)cccc1-c1cc(-c2cn(Cc3cccc(C(C)(C)O)n3)nn2)nc(N)n1` [AB928, 3-[2-amino-6-[1-[[6-(2-hydroxypropan-2-yl)pyridin-2-yl]methyl]triazol-4-yl]pyrimidin-4-yl]-2-methylbenzonitrile], the IC50 at A2AR [4] is 65.6 nM; at A2BR [1] it was 8.18 nM; on A2BR [2] it was 1.29 nM; at A2BR [3], 7.46 nM; at A2AR [5], 1.78 nM; against A2AR [6], 3.21 nM.
